This is an account of results in ChEMBL document CHEMBL3991601, “The target landscape of clinical kinase drugs” (Science, 2017).

Activity calls are given as the source filed them. For most assays here, no stated cut-off is given here; in the data, actives have a measured Kd and inactives only a lower limit.

Test [1] addresses T1, Adenine phosphoribosyltransferase (Homo sapiens, UniProt P07741).
T1 sequence (P07741 whole entry): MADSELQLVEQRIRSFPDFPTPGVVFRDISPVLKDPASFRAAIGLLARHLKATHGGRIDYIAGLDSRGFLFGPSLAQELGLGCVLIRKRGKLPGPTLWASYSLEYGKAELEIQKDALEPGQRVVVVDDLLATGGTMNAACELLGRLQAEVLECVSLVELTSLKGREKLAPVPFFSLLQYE

For a further test, the target named is GTP-binding protein 4 (Homo sapiens, UniProt Q9BZE4).
The next test deals with T2, Ephrin type-B receptor 3 (Homo sapiens, UniProt P54753).
T2 sequence (P54753 whole entry): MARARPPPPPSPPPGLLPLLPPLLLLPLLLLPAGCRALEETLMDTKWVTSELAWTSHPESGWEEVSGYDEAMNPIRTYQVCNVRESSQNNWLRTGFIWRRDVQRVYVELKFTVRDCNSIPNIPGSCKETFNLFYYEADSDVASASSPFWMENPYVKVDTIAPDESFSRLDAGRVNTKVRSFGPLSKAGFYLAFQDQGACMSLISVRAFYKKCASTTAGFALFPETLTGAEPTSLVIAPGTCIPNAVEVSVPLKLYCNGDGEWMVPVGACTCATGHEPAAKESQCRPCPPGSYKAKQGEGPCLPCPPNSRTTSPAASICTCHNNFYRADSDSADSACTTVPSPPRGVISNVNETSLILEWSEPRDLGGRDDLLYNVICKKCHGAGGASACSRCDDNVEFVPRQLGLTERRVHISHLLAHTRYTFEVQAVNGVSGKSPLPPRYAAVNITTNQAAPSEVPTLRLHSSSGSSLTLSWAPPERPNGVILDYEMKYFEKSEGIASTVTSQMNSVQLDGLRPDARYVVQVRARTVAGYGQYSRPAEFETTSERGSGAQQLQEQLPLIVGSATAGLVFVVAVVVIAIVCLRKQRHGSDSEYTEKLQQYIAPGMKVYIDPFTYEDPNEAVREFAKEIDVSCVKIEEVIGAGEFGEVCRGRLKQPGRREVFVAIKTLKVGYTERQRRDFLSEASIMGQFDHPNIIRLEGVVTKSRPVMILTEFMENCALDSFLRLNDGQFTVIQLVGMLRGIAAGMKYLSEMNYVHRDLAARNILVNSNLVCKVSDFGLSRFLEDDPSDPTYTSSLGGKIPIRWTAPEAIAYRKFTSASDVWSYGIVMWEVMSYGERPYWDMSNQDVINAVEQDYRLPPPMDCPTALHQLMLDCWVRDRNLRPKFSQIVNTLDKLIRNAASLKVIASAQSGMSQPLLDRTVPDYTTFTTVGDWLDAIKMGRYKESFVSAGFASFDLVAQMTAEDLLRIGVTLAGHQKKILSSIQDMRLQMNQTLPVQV

Test [2] deals with Dual specificity mitogen-activated protein kinase kinase 2 (Homo sapiens, UniProt P36507).
Sequence of Dual specificity mitogen-activated protein kinase kinase 2 (P36507 whole entry): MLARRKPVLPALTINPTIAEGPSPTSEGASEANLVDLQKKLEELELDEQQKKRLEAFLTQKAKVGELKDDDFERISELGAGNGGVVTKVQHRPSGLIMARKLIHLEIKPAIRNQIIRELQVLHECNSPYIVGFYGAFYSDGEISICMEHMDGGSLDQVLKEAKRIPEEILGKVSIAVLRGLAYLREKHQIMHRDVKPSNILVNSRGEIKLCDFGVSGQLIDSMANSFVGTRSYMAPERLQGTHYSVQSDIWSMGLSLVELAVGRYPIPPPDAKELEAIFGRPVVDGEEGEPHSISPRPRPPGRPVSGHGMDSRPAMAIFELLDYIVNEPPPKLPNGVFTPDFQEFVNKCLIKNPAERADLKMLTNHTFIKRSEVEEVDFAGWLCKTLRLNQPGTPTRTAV
The target in test [3] is Serine/threonine-protein kinase 16 (Homo sapiens, UniProt O75716).
Sequence of Serine/threonine-protein kinase 16 (O75716 whole entry): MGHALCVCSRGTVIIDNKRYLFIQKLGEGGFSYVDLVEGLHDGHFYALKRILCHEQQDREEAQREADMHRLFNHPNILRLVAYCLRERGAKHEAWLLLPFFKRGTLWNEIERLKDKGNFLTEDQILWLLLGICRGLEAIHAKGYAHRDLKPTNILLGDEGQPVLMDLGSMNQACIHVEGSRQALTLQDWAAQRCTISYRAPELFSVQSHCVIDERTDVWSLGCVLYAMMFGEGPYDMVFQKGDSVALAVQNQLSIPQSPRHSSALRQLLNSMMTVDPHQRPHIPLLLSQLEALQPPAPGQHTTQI
For test [4], the target named is T3, Phosphatidylinositol 5-phosphate 4-kinase type-2 alpha (Homo sapiens, UniProt P48426).
T3 sequence (P48426 whole entry): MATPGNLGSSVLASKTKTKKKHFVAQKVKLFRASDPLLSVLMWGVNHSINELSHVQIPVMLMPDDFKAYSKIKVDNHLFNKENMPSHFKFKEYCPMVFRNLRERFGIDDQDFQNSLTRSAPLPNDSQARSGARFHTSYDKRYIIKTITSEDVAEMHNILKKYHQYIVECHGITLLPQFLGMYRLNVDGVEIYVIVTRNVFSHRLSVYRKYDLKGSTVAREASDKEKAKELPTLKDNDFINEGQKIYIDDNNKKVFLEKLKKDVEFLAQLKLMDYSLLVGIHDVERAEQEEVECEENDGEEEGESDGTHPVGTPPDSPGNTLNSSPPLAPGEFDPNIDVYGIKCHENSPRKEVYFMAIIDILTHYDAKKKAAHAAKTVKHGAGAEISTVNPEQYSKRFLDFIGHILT

The target of test [5] is Calcium/calmodulin-dependent protein kinase type II subunit delta (Homo sapiens, UniProt Q13557).
Sequence of Calcium/calmodulin-dependent protein kinase type II subunit delta (Q13557 whole entry): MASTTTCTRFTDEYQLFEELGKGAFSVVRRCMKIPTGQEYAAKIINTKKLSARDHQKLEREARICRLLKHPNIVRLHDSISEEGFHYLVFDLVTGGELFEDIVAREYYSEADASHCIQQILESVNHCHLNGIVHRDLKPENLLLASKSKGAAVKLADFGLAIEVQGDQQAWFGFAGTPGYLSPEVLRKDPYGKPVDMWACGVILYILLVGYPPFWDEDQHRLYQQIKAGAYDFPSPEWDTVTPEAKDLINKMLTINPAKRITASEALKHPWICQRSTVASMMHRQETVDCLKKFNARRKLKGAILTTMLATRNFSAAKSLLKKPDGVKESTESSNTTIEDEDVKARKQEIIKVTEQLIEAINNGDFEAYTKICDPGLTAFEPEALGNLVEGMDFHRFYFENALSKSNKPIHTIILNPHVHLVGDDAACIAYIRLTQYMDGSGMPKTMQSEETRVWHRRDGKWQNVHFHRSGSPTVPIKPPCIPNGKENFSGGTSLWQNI
The target in test [6] is T4, Peroxisomal acyl-coenzyme A oxidase 3 (Homo sapiens, UniProt O15254).
T4 sequence (O15254 whole entry): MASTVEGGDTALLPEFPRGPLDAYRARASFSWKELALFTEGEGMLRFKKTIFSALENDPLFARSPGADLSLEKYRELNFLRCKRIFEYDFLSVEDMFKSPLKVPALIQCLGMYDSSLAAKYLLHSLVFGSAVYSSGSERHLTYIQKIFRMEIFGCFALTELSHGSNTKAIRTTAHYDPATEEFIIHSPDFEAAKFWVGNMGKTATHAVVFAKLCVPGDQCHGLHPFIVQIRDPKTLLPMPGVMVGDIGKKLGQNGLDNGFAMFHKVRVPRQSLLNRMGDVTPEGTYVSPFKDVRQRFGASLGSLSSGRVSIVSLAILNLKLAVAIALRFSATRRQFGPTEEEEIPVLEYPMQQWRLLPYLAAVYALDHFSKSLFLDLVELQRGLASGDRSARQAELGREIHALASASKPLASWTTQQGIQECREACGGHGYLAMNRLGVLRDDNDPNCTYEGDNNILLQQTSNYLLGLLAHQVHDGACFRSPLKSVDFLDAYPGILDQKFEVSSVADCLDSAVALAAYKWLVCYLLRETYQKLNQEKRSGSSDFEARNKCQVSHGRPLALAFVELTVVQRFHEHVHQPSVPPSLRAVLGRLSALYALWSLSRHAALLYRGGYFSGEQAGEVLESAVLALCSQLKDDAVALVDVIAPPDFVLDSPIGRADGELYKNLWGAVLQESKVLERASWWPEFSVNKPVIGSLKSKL

The target in test [7] is 5'-AMP-activated protein kinase catalytic subunit alpha-1 (Homo sapiens, UniProt Q13131).
Sequence of 5'-AMP-activated protein kinase catalytic subunit alpha-1 (Q13131 whole entry): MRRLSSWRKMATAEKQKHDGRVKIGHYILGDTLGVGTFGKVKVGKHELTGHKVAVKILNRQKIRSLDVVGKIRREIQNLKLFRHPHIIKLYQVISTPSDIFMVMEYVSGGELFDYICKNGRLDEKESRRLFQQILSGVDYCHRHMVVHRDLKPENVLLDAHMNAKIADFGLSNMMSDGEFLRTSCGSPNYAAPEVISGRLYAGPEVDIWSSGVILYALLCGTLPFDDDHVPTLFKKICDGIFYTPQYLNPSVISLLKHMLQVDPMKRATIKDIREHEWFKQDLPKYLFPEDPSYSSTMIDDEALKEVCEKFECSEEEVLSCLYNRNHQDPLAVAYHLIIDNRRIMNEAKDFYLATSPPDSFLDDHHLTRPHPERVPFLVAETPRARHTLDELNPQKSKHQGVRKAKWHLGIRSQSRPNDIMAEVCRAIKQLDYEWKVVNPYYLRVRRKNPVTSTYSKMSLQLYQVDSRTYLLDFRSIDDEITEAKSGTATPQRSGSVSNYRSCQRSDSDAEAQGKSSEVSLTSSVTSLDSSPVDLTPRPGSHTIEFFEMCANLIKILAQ
Test [8] deals with Mitogen-activated protein kinase 9 (Homo sapiens, UniProt P45984).
Sequence of Mitogen-activated protein kinase 9 (P45984 whole entry): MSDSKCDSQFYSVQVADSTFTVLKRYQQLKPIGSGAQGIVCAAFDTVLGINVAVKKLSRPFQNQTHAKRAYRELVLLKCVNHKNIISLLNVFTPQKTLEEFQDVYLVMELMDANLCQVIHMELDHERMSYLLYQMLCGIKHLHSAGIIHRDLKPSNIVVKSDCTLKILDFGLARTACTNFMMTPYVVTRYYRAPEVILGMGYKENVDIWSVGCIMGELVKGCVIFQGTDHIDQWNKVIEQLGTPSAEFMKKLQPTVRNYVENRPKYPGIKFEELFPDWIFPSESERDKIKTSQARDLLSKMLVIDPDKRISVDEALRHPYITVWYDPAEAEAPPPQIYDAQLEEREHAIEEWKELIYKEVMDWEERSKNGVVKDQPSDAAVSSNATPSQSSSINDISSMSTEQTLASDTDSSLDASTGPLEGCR
Test [9] addresses Mitogen-activated protein kinase 8 (Homo sapiens, UniProt P45983).

Sequence of Mitogen-activated protein kinase 8 (P45983 whole entry): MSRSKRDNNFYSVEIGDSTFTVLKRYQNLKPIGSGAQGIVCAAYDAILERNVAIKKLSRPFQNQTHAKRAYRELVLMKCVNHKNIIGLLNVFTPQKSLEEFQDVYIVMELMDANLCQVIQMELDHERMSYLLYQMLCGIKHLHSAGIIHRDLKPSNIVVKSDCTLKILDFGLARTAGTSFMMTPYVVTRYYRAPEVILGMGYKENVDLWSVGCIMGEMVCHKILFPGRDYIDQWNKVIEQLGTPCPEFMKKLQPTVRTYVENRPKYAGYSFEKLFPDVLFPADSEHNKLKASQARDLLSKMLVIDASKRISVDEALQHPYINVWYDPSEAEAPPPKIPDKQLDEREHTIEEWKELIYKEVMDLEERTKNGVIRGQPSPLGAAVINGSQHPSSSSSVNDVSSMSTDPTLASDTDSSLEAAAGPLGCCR

In the case of `O[C@H]1CC[C@H](Nc2ncc3nc(Nc4c(F)cc(F)cc4F)n([C@H]4CCOC4)c3n2)CC1` [TANZISERTIB], the Kd (in [1]; at GTP-binding protein 4; at Ephrin type-B receptor 3; in test [2]; in test [3]; in test [4]) was > 30 µM (inactive) each time. Besides, the Kd in test [5], in test [6] and in [7] was > 30 µM (inactive) each time.

As to `O=C(O)c1ccc2c(c1)nc(Nc1cccc(Cl)c1)c1ccncc12` [SILMITASERTIB], the Kd (in test [1]; at Ephrin type-B receptor 3; in test [2]; in [8]; in test [3]; in test [5]) was > 30 µM (inactive) in each case. Also, the Kd (usually the free concentration of one partner at which half of the binding sites on the other are occupied at equilibrium, for simple one-to-one binding) in test [9] was > 30 µM (inactive); in test [6], > 30 µM (inactive); in test [7], 15.4 µM (active).

Consider `CN1CCN(c2nc(C3=C(c4c[nH]c5ccccc45)C(=O)NC3=O)c3ccccc3n2)CC1` [SOTRASTAURIN], for which the dissociation constant Kd at GTP-binding protein 4 was 8.2 µM; on Ephrin type-B receptor 3 it was > 30 µM (inactive); in [2], > 30 µM (inactive); in test [8], > 30 µM (inactive); in [3], > 30 µM (inactive); in [5], > 30 µM (inactive). Further, the Kd in test [9], in [6] and in [7] was > 30 µM (inactive) throughout.

As for `NC(=O)c1ccc(N(C(N)=O)c2c(F)cccc2F)nc1-c1ccc(F)cc1F` [VX-702], the Kd (in [1]; on GTP-binding protein 4; at Ephrin type-B receptor 3; in test [2]; in [3]; in test [4]) was > 30 µM (inactive) each time. In addition, the Kd in test [5], in test [9], in test [6] and in test [7] was > 30 µM (inactive) throughout.

On to `C=CCN(/C=C1/C(=O)O[C@H](COC)[C@@]2(C)C1=C(O)C(=O)C1=C2[C@H](OC(C)=O)C[C@]2(C)C(=O)CC[C@@H]12)CC=C` [SONOLISIB], for which the Kd (on GTP-binding protein 4; at Ephrin type-B receptor 3; in test [2]; in [8]; in test [3]; in [5]) was > 30 µM (inactive) throughout. Also, the Kd in [9], in test [6] and in test [7] was > 30 µM (inactive) in each case.

`C#Cc1cccc(Nc2ncnc3cc4c(cc23)OCCOCCOCCO4)c1` [ICOTINIB]: the Kd (in [1]; at GTP-binding protein 4; on Ephrin type-B receptor 3; in test [2]; in test [8]; in test [3]) was > 30 µM (inactive) each time. The Kd in test [5], in test [9], in [6] and in [7] was > 30 µM (inactive) each time.

Take `CC(C)(O)CC(=O)NCCn1ccc2ncnc(Nc3ccc(Oc4cccc(C(F)(F)F)c4)c(Cl)c3)c21` [TAK-285]: the Kd (on GTP-binding protein 4; at Ephrin type-B receptor 3; in [8]; in test [5]; in test [9]; in test [6]) was > 30 µM (inactive) each time. Also, the Kd in test [7] was > 30 µM (inactive).

As to `CCOc1ccn(-c2ccc(F)cc2)c(=O)c1C(=O)Nc1ccc(Oc2ccnc(N)c2Cl)c(F)c1` [BMS-777607], the Kd (in test [1]; at Ephrin type-B receptor 3; in test [2]; in test [8]; in test [3]; in test [4]) was > 30 µM (inactive) in each case. Besides, the Kd in test [5], in [9] and in [6] was > 30 µM (inactive) throughout.

As to `COc1cc2ncnc3c2cc1OCCCCCN(C)Cc1ccc(Br)cc1N3` [JNJ-26483327], the Kd (in test [1]; at GTP-binding protein 4; at Ephrin type-B receptor 3; in [2]; in test [8]; in test [3]) was > 30 µM (inactive) in each case. The Kd in [5], in [9], in [6] and in [7] was > 30 µM (inactive) throughout.

In the case of `C[C@]1(O)C[C@@H](c2nc(-c3ccc4ccc(-c5ccccc5)nc4c3)c3c(N)nccn32)C1` [LINSITINIB], the Kd at GTP-binding protein 4 was > 30 µM (inactive); at Ephrin type-B receptor 3, > 30 µM (inactive); in [2], 1.14 µM (active); in test [3], > 30 µM (inactive); in test [4], > 30 µM (inactive); in test [6] it was > 30 µM (inactive).

For the compound `CNC(=O)c1cc(COc2nnc(Nc3ccc(Cl)cc3)c3ccoc23)ccn1` [TELATINIB], the Kd (on GTP-binding protein 4; on Ephrin type-B receptor 3; in test [2]; in [8]; in test [3]; in test [5]) was > 30 µM (inactive) each time. For the same compound, the Kd in test [9], in test [6] and in test [7] was > 30 µM (inactive) in each case.

As for `O=C(NOC[C@H](O)CO)c1ccc(F)c(F)c1Nc1ccc(I)cc1F` [MIRDAMETINIB], the Kd (in [1]; on GTP-binding protein 4; on Ephrin type-B receptor 3; in test [8]; in [3]; in test [4]) was > 30 µM (inactive) each time. Besides, the Kd in test [5], in [9], in test [6] and in test [7] was > 30 µM (inactive) in each case.
